In patent publication US11351134B2, “Small molecule agents, compositions, and formulations, for internal use, displaying inhibitory activity against gram-positive and/or gram-negative organisms” (NATUREZA, INC., priority 2017, dated 2022):
Read-outs that look alike come from different tables or passages of the source.

What was measured:
[1] = system: S. epidermidis; assay: Broth microdilution MIC of lecithin/chitosan particle compositions; type: cell-based; details: for MIC: Staphylococcus epidermidis
Method: (§1) Initially, to determine basic characteristics, each active component was separately mixed, generally under agitated conditions, with water, and each was miscible with water. Each, after being mixed with water, was tested in a broth microdilution assay, against a variety of bacteria using amounts of the each of the lauric acid derivatives, ranging from about 0.0009 wt. % to about 8 wt. %. The bacteria included Escherichia coli, and Staphylococcus aureus (including MRSA strains). The minimum inhibitory concentration (MIC) needed to prevent growth of the target bacteria was evaluated based on a method published by Clinical Laboratory Standards Institute (CLSI), broth microdilution method M-07 (M07). […] Each of the samples containing one of the lauric acid derivatives was compared with a positive control, decanoic acid.
(§2) For TABLES 1 to 3, compositions were generally prepared as described above, and as further outlined in this paragraph. For these examples, the active component, as a lauric acid derivative or lauric acid, was suspended in an organic solvent, chloroform, and then mixed with water, under robust agitation. The amount of water to the amount of chloroform was at least about 2:1, and could be as high as 10:1. Chloroform was then evaporated (e.g., under vacuum using a freeze dryer). After removal of the chloroform, a 2.2% lecithin solution in an acetate buffer (e.g., 98 mM acetic acid and 2 mM sodium acetate) was prepared and added, so the final amount of the active component was about 1 part active component mixture and about 9 parts of the 2.2% lecithin solution. Of course, it is noted that other ranges to achieve final amount of the active component as described above (e.g., active component mixture and lecithin solution) may also be utilized. Cholesterol could also be optionally added. The mixture of lecithin and the active component was mixed and sonicated, and then a solution of about 1.5% chitosan was added. Thereafter, the entirety of the mixture containing the lecithin and the active component was further blended, in which a final ratio was about 1 part active component to about 9 parts of the 2.2% lecithin solution to about 10 parts of the 1.5% chitosan solution. The pH was then varied, to a pH of 5, or a pH of 7, or a pH of 9. In some mixtures having a pH of 7, a chemical agent imparting a positive charge to the chitosan was included in a form of glycol chitosan. In these tests, the chemical agent used was glycol. In these examples, the amount of chemical agent, glycol was about one molecule glycol moiety to one molecule chitosan sacharide unit; higher amounts of glycol moieties are also acceptable, while lower amounts of glycol moieties were often found to decrease overall inhibitory activity associated with a composition when formed and tested in vitro. It is noted that negatively charged chitosan containing particles were prepared. […] After mixing, the mixtures could each be filtered through a […] filter. In some tests, the mixtures were sonicated before filtering. Sonication produced small particles. In some studies, particles were freeze dried as a powder (generally, after mixing, sonicating and filtering).
(§3) The positive controls were prepared and evaluated in a similar manner. All prepared samples were tested using a broth microdilution test.

[2] = system: Gram-positive pathogens and Gram-negative pathogens; assay: In vitro inhibitory activity of chitosan- or carrier-containing particles; type: cell-based
Description: as §2, §3
This also occurs when the chitosan- or carrier-containing particle includes an active component that has a log P value that is less than 4 and includes a methyl and/or ethyl side chain (e.g., 12-amino-1-dodecanoic acid methyl ester). […]

[3] = system: E. coli; assay: Broth microdilution MIC of lecithin/chitosan particle compositions; type: cell-based; details: for MIC: Escherichia coli; for MIC (mg/ml) for E. coli (chitosan prep. mixture was at pH 5 or at pH 7): prep. mixture pH 5 or pH 7
Method: as §1, §2, §3

[4] = system: representative Gram-positive pathogens and yeast; assay: Broth microdilution of lecithin/chitosan compositions, sonicated and/or filtered; type: cell-based; details: composition with lecithin and chitosan
Description: In a further preparation, lauric acid derivative, 12-aminododecanoic acid or 12-amino-1-dodecanoic acid methyl ester, was suspended individually (and independently) in an organic solvent, chloroform, and mixed with water, generally under agitated conditions. Here, for each sample, the amount of water to the amount of chloroform was at least 2:1, and was as high as 10:1. This was followed by chloroform evaporation, generally under vacuum using a freeze dryer. After removal of the chloroform, a lecithin solution was added to each sample. The lecithin was in a solution of acetic acid (e.g., 98 mM acetic acid and 2 mM sodium acetate), in which the amount of lecithin in solution was between about 1% to 5%. With addition of lecithin, each sample mixture contained up to about 4.8% lecithin (or generally about 5% or less), and up to about 7.8% of one of the lauric acid derivatives (or generally about 8% or less). pH of the solution was neutral. It is noted that the lecithin should be in a suitable form (e.g., solution or granules) acceptable for internal utilization (e.g., pharmaceutical grade). The lecithin may also include cholesterol, or other lecithin variants as described above, with similar results. Chitosan was then added to each of the samples, and each sample was then independently sonicated, followed by independent sterilization by high pressure filtration. […]

[5] = system: Escherichia coli; assay: Broth microdilution (CLSI M07) of active component mixed with water only; type: cell-based; details: active component mixed with water only (miscible state); about 0.0009 wt. % to about 8 wt. %
Method: as §1

[6] = system: Staphylococcus aureus (including MRSA strains); assay: as above; type: cell-based; details: active component mixed with water only (miscible state); about 0.0009 wt. % to about 8 wt. %
Method: as §1

[7] = system: gram-positive organisms, Streptococcus group A and Streptococcus beta-hemolytic non-A, and S. aureus, as well as Candida; details: background reports; free acid or ester used as such, in vitro/topical; cited from earlier work
[8] = type: in vivo; details: mice, oral capsules approximately 4 mg active component in chitosan-containing particles, three times per day for seven days
Description: Laboratory trials have shown that no resistance has developed in pathogens exposed to the compositions described herein, even with long term, repeated exposure (data not shown). In addition, no intrinsic resistance can or has been detected in target pathogens. […] A placebo group is also included, in which a group of 10 mice are given a placebo set of capsules, orally, three times per day and continued for seven days, each of the placebo set of capsules containing similarly prepared chitosan-containing particles without an active component, the preparation being generally as described herein. Initial mice have been infected with Salmonella typhimurium prior to oral delivery of one of the set of capsules. The capsules may be vegetable capsules. The capsules may have an enteric coating. For delivery, a formulation may be prepared in a manner understood in the relevant art. For delivery, a formulation may be in at least any one or more of the following forms: liquid, capsule, dried powder, mist, and the like. For delivery, the formulation will contain pharmaceutical grade materials, including one or more excipients and or fillers for internal and/or topical delivery in sufficient amounts known to those of skill in the relevant art. Flavors, colors, sugars, sugar-substitutes, and the like may also be included in any of the formulations, as is understood to those of skill in the relevant art.

[9] = Table 3, lecithin/chitosan particle composition, prep. mixture pH 5 or pH 7, maximum concentration tested 10 mg/ml
[10] = Table 3, lecithin/chitosan particle composition, prep. mixture pH 5 or pH 7, maximum concentration tested 10 mg/ml, read-out: MIC (mg/ml) S. epidermidis (chitosan prep. mixture at pH 5 or at pH 7)
[11] = synthesis (with chitosan) at pH 7 with positively charged chitosan
[12] = lecithin/chitosan particle composition, maximum concentration tested 10 mg/ml
[13] = lecithin/chitosan particle composition, prep. mixture pH 5 or pH 7, maximum concentration tested 10 mg/ml, read-out: MIC (mg/ml) for S. epidermidis (chitosan prep. mixture was at pH 5 or at pH 7)

## CCCCCCCCCCCC(=O)OCC(O)CO (racemic) [1-lauroyl-rac-glycerol]
[1]; read-out: MIC (mg/ml) S. epidermidis (chitosan prep. mixture at pH 5 or at pH 7)
  MIC: 10 mg/mL

## CCCCCCCCCC(=O)CC(=O)NC1CCCCC1=O (stereo not drawn) [3-oxo-N-(2-oxocyclohexyl) dodecanamide]
[1]; [9]
  MIC (mg/ml) S. epidermidis (chitosan prep. mixture at pH 5 or at pH 7): 10 mg/ml

## CCCCCCCCCCCC(=O)Oc1ccc([N+](=O)[O-])cc1 [4-nitrophenyl dodecanoate]
[1]; [10]
  MIC: 10 mg/mL

## O=C(O)CCCCCCCCCCCNc1ccc([N+](=O)[O-])c2nonc12 [12-(7-nitrobenzofurazan-4-ylamino) dodecanoic acid]
[1]; [10]
  MIC: 10 mg/mL

## NCCCCCCCCCCCC(=O)O [12-aminododecanoic acid]
[2]; [11]
  Inhibitory activity against both Gram-positive pathogens and Gram-negative pathogens: stronger inhibitory activity as well as broad spectrum activity
[3]; lecithin/chitosan particle composition, prep. mixture pH 9, maximum concentration tested 10 mg/ml, read-out: MIC (mg/ml) for E. coli (chitosan prep. mixture was at pH 9)
  MIC: 10 mg/mL
[3]; lecithin/glycol chitosan particle composition, prep. mixture pH 7, maximum concentration tested 10 mg/ml, read-out: MIC (mg/ml) for E. coli (chitosan prep. mixture was at pH 7 with glycol chitosan)
  MIC: 10 mg/mL
[3]; [12]
  MIC (mg/ml) for E. coli (chitosan prep. mixture was at pH 5 or at pH 7): — (no inhibitory activity)
[1]; [13]
  MIC: 10 mg/mL
[4]
  Growth inhibitory activity against representative Gram-positive pathogens and yeast: exhibited growth inhibitory activity
[5]
  Inhibitory activity against Gram-negative bacteria (e.g., E. coli): does not, in the miscible state, demonstrate inhibitory activity
[6]
  Inhibitory activity against Gram-positive bacteria (e.g., S. aureus): does not, in the miscible state, demonstrate inhibitory activity

## CCCCCCCCCCCC(=O)OCc1ccccc1 [benzyl laurate]
[1]; [10]
  MIC: 10 mg/mL

## CCCCCCCCCCCC(=O)OCCCC [butyl laurate]
[1]; [10]
  MIC: 10 mg/mL

## CCCCCCCCCCCC(=O)OCC [ethyl laurate]
[7]
  Inhibitory activity reported in the literature: inactive

## CCCCCCCCCCCC(=O)OCCCCCC [hexyl laurate]
[1]; [10]
  MIC: 10 mg/mL

## CCCCCCCCCCCC(=O)OCCC(C)C [isoamyl laurate]
[1]; [10]
  MIC: 10 mg/mL

## CCCCCCCCCCCC(=O)OC(C)C [isopropyl laurate]
[1]; [10]
  MIC: 10 mg/mL

## CCCCCCCCCCCC(=O)O [lauric acid, dodecanoic acid]
[7]
  Inhibitory activity reported in the literature: weak inhibitory activity

## CCCCCCCCCCCC(=O)OC [methyl laurate]
[7]
  Inhibitory activity reported in the literature: ineffective

## CCCCCCCCCCCC(=O)OCC(O)CO (stereo not drawn) [monolaurin]
[1]; [9]
  MIC (mg/ml) S. epidermidis (chitosan prep. mixture at pH 5 or at pH 7): 10 mg/ml

## CCCCCCCC(=O)O [octanoic acid, reference compound]
[3]; [12]
  MIC (mg/ml) for E. coli (chitosan prep. mixture was at pH 5 or at pH 7): — (no inhibitory activity)
[3]; particulated compositions manipulated to impart positivity (glycol chitosan at neutral pH, or prepared at pH 9)
  Inhibitory activity against representative Gram-negative bacteria: not found to exhibit inhibitory activity
[1]; [10]
  MIC: 10 mg/mL
[1]; [13]
  MIC: 10 mg/mL

## CCCCCCCCCCCC(=O)OCCCCC [pentyl laurate]
[1]; [10]
  MIC: 10 mg/mL

## sucrose monolaurate
[2]; [11]
  Inhibitory activity against both Gram-positive pathogens and Gram-negative pathogens: stronger inhibitory activity as well as broad spectrum activity
[2]; synthesis (with chitosan) at pH 9
  Inhibitory activity against both Gram-positive pathogens and Gram-negative pathogens: stronger inhibitory activity as well as broad spectrum activity
[3]; [12]
  MIC (mg/ml) for E. coli (chitosan prep. mixture was at pH 5 or at pH 7): — (no inhibitory activity)
[3]; lecithin/chitosan particle composition, prep. mixture pH 9, maximum concentration tested 10 mg/ml
  MIC (mg/ml) for E. coli (chitosan prep. mixture was at pH 9): 10 mg/ml
[3]; lecithin/glycol chitosan particle composition, prep. mixture pH 7, maximum concentration tested 10 mg/ml
  MIC (mg/ml) for E. coli (chitosan prep. mixture was at pH 7 with glycol chitosan): 10 mg/ml
[1]; lecithin/chitosan particle composition, prep. mixture pH 5 or pH 7, maximum concentration tested 10 mg/ml
  MIC (mg/ml) for S. epidermidis (chitosan prep. mixture was at pH 5 or at pH 7): 10 mg/ml
[8]
  Safety in animal trials: no safety concerns
